# Measurements reported in patent publication US20230057984A1, “NORMALIZATION OF CULTURE OF CORNEAL ENDOTHELIAL CELLS” (KYOTO PREFECTURAL PUBLIC UNIVERSITY CORPORATION, priority 2011, published 2023).
# How the values were obtained:
# [1] = tested on: Cynomolgus monkey corneal endothelial cells; assay: Western blot of Na+/K+-ATPase and ZO-1 in monkey corneal endothelial cells (Example 3); assay type: cell-based; conditions: monkey CEC treated with SB431542 vs fibroblast phenotype control
# Experimental: Next, reaction was allowed for 1 hour at a room temperature with ALEXA FLUOR 488 (INVITROGEN (catalog number: A21206)) and ALEXA FLUOR 594 (INVITROGEN (catalog number: A21203)), diluted with TBS-T by 1,000 fold. After washing with PBS, the sample was encapsulated with VECTASHIELD WITH DAPI (VECTOR LABORATORIES (catalog number: 94010)) onto a slide, followed by observation through confocal microscope (Leica). • Western blot technique: protein extracted by RIPA buffer was electrophoresed with 7.5% polyacrylamide. The separated protein was transferred to a PVDF film (PALL LIFE SCIENCE (catalog number: EH-2222)). […] After washing, bands were detected using an ECL-ADVAVCE Western Blotting Detection Kit (GE healthcare Japan (catalog number: RPN2135V)). […]
# P-40 (Nacalai Tesque, catalog number: 23640-94), 0.5% sodium deoxycholate (Nacalai Tesque, catalog number:10712-12), and 0.1% SDS (Nacalai Tesque, catalog number:31607-65)). Thus obtained cell lysate was centrifuged (15,000 rpm, 10 minutes), the supernatant thereof was collected, and the protein was quantitated using a BCA PROTEIN ASSAY KIT (PIERCE, catalog number: 23227). […]
# [2] = tested on: Human corneal endothelial cells; assay: Quantitative PCR of collagen type 1 and fibronectin in HCEC; assay type: cell-based; conditions: SB431542 1 μM, normalized with GAPDH, relative to control
# Experimental: Amplified DNA fragments were electrophoresed with 1.5% agarose gel (Nacalai Tesque, catalog number:01149-76), and detected by staining with ethidium bromide (Nacalai Tesque, catalog number: 14603-51). • Quantitative PCR was performed using the following TaqMan (registered trademark) (Invitrogen) primers. collagen type 1: Hs00164004_m1; fibronectin: Hs01549976_m1; GAPDH: Hs00266705_g1. The PCR was performed using a StepOne™ (Applied Biosystems) real-time PCR system. The GAPDH was used as an internal standard.
smiles,measurement,setting,value
NC(=O)c1ccc(-c2nc(-c3ccc4c(c3)OCO4)c(-c3ccccn3)[nH]2)cc1 [SB431542],"expression of Na+/K+-ATPase and ZO-1, protein level (Western blot)",[1],strongly enhanced
same,expression of collagen type 1 at mRNA level (quantitative PCR),[2],significantly decreased
same,expression of fibronectin at mRNA level (quantitative PCR),[2],significantly decreased
